{"source": "patent US8053452B2", "about": "“Substituted isoxazoline or enone oxime compound, and pest control agent” (Nissan Chemical Industries, Ltd., priority 2007, dated 2011)", "key": {"[1]": {"tested_on": "Plutella xylostella", "assay": "Mortality test for Plutella xylostella", "format": "in vivo", "conditions": "144 h", "description": "(§1) A 10% emulsifiable concentrate of the compound of the present invention (depending on the type of the compound, a 10% wettable powder was subjected to the test) was diluted with water containing a spreader to prepare a drug solution in a concentration of 10 ppm. In this drug solution, a leaf of cabbage was immersed for about 10 seconds and was air-dried and then put into a petri dish. In the petri dish, five 2 instar larvae of Plutella xylostella per petri dish were released and the petri dish was capped and stored in a thermostatic room of 25° C. The number of killed larvae after 6 days was counted and the mortality was calculated from the following calculation formula: Mortality(%)=(number of killed larvae/number of released larvae)×100. Here, the test was carried out with two replications."}, "[2]": {"tested_on": "Spodoptera litura", "assay": "Mortality test for Spodoptera litura", "format": "in vivo", "conditions": "144 h", "description": "as §1, with “Spodoptera litura” for “Plutella xylostella”, “same” for “following”, “formula as that in Test Example 1.” for “formula: Mortality(%)=(number of killed larvae/number of released larvae)×100.”"}, "[3]": {"tested_on": "Nilaparvata lugens", "assay": "Mortality test for Nilaparvata lugens", "format": "in vivo", "conditions": "144 h, drug solution 500 ppm, rice leaf sheath immersed, 2 instar larvae, after 6 days", "description": "(§2) A 10% emulsifiable concentrate of the compound of the present invention (depending on the type of the compound, a 10% wettable powder was subjected to the test) was diluted with water containing a spreader to prepare a drug solution in a concentration of 500 ppm. In this drug solution, a leaf sheath of rice was immersed for about 10 seconds and was air-dried and then put into a test tube. In the test tube, five 2 instar larvae of Nilaparvata lugens per test tube were released and the test tube was capped with a sponge and stored in a thermostatic room of 25° C. The number of killed larvae after 6 days was counted and the mortality was calculated from the same calculation formula as that in Test Example 1. Here, the test was carried out with two replications."}, "[4]": {"tested_on": "Helicoverpa armigera", "assay": "Mortality test for Helicoverpa armigera", "format": "in vivo", "conditions": "144 h, drug solution 100 ppm, cabbage leaf immersed, 2 instar larva, after 6 days", "description": "A 10% emulsifiable concentrate of the compound of the present invention (depending on the type of the compound, a 10% wettable powder was subjected to the test) was diluted with water containing a spreader to prepare a drug solution in a concentration of 100 ppm. In this drug solution, a leaf of cabbage was immersed for about 10 seconds and was air-dried and then put into a petri dish. In the petri dish, one 2 instar larva of Helicoverpa armigera per petri dish was released and the petri dish was capped and stored in a thermostatic room of 25° C. The number of killed larvae after 6 days was counted and the mortality was calculated from the same calculation formula as that in Test Example 1. Here, the test was carried out with 12 replications."}, "[5]": {"tested_on": "Eysarcoris lewisi", "assay": "Mortality test for Eysarcoris lewisi", "format": "in vivo", "conditions": "48 h, drug solution 500 ppm, rice leaf sheath immersed, 1 instar larvae, after 2 days", "description": "as §2, with “five 1” for “five 2”, “of Eysarcoris lewisi” for “of Nilaparvata lugens”, “after 2” for “after 6”"}, "[6]": {"tested_on": "Liriomyza trifolii", "assay": "Mortality test for Liriomyza trifolii", "format": "in vivo", "conditions": "144 h, drug solution 500 ppm, kidney bean leaf with eggs immersed, killed larvae after 6 days", "description": "as §2, with “leaf” for “leaf sheath”, “kidney bean on which Liriomyza trifolii laid eggs (10 eggs/leaf) and which was cut out to a diameter of 7 cm” for “rice”, “laid on” for “put into”, “wet filtration paper laid in a styrol cup having an inner diameter” for “test tube. In the test tube, five 2 instar larvae”, “7 cm. The styrol cup” for “Nilaparvata lugens per test tube were released and the test tube”, “capped” for “capped with a sponge”"}, "[7]": {"tested_on": "Aulacophora femoralis", "assay": "Mortality test for Aulacophora femoralis", "format": "in vivo", "conditions": "144 h", "description": "(§3) A 10% emulsifiable concentrate of the compound of the present invention (depending on the type of the compound, a 10% wettable powder was subjected to the test) was diluted with water containing a spreader to prepare a drug solution in a concentration of 500 ppm. In this drug solution, a leaf of cucumber was immersed for about 10 seconds and was air-dried and then put into a petri dish. In the petri dish, five 2 instar larvae of Aulacophora femoralis per petri dish were released and the petri dish was capped and stored in a thermostatic room of 25° C. The number of killed larvae after 6 days was counted and the mortality was calculated from the same calculation formula as that in Test Example 1. Here, the test was carried out with two replications."}, "[8]": {"tested_on": "Homona magnanima", "assay": "Mortality test for Homona magnanima", "format": "in vivo", "conditions": "144 h, drug solution 100 ppm, cabbage leaf immersed, 2 instar larvae, after 6 days", "description": "as §3, with “100” for “500”, “cabbage” for “cucumber”, “Homona magnanima” for “Aulacophora femoralis”"}, "[9]": {"conditions": "drug solution 100 ppm (mark *), cabbage leaf immersed, 2 instar larvae, after 6 days, read-out: mortality"}}, "note": "Where two headings read alike, the source gives them in different places."}
{"smiles": "CSC1C(c2ccc(C(=O)NCC(F)(F)F)c(C)c2)=NOC1(c1cc(Cl)cc(Cl)c1)C(F)(F)F", "note": "(stereo not shown) [1-005, 4-(5-(3,5-dichlorophenyl)-4-methylthio-5-trifluoromethyl-4,5-dihydroisoxazole-3-yl)-2-methyl-N-(2,2,2-trifluoroethyl)benzoic acid amide]", "values": [{"measurement": "mortality at 100 ppm", "setting": "[1]; in Brassica oleracea", "result": "≥ 80", "unit": "%"}, {"measurement": "mortality at 100 ppm", "setting": "[2]; in Brassica oleracea", "result": "≥ 80", "unit": "%"}]}
{"smiles": "O=C(NCc1ccc(C2=NOC(c3cc(Cl)cc(Cl)c3)(C(F)(F)F)C2Br)cc1Br)C1CC1", "note": "(stereo not shown) [2-002, N-(2-bromo-4-(4-bromo-5-(3,5-dichlorophenyl)-5-trifluoromethyl-4,5-dihydroisoxazole-3-yl)phenylmethyl)cyclopropylcarboxamide]", "values": [{"measurement": "mortality at 500 ppm", "setting": "[3]", "result": "≥ 80", "unit": "%"}]}
{"smiles": "CSc1ccc(C2=NOC(c3cc(Cl)cc(Cl)c3)(C(F)(F)F)C2Br)cc1", "note": "(stereo not shown) [4-002, 4-bromo-5-(3,5-dichlorophenyl)-3-(4-(methylthio)phenyl)-5-trifluoromethyl-4,5-dihydroisoxazole]", "values": [{"measurement": "mortality at 500 ppm", "setting": "[3]", "result": "≥ 80", "unit": "%"}, {"measurement": "mortality at 100 ppm", "setting": "[1]; in Brassica oleracea", "result": "≥ 80", "unit": "%"}, {"measurement": "mortality at 100 ppm", "setting": "[4]", "result": "≥ 80", "unit": "%"}, {"measurement": "mortality at 100 ppm", "setting": "[2]; in Brassica oleracea", "result": "≥ 80", "unit": "%"}]}
{"smiles": "Cc1cc(C2=NOC(c3cc(Cl)cc(Cl)c3)(C(F)(F)F)C2Br)ccc1C(=O)NCC(F)(F)F", "note": "(stereo not shown) [1-003, 4-(4-bromo-5-(3,5-dichlorophenyl)-5-trifluoromethyl-4,5-dihydroisoxazole-3-yl)-2-methyl-N-(2,2,2-trifluoroethyl)benzoic acid amide]", "values": [{"measurement": "mortality at 500 ppm", "setting": "[3]", "result": "≥ 80", "unit": "%"}, {"measurement": "mortality at 500 ppm", "setting": "[5]", "result": "≥ 80", "unit": "%"}, {"measurement": "mortality at 100 ppm", "setting": "[1]; in Brassica oleracea", "result": "≥ 80", "unit": "%"}, {"measurement": "mortality at 500 ppm", "setting": "[6]", "result": "≥ 80", "unit": "%"}, {"measurement": "mortality at 500 ppm", "setting": "[7]; in Cucumis sativus", "result": "≥ 80", "unit": "%"}, {"measurement": "mortality at 100 ppm", "setting": "[2]; in Brassica oleracea", "result": "≥ 80", "unit": "%"}]}
{"smiles": "CON=CNC(=O)c1ccc(C2=NOC(c3cc(C(F)(F)F)cc(C(F)(F)F)c3)(C(F)(F)F)C2Br)cc1", "note": "(stereo not shown) [1-011, 4-(4-bromo-5-(3,5-bis(trifluoromethyl)phenyl)-5-trifluoromethyl-4,5-dihydroisoxazole-3-yl)-N-(methoxyiminomethyl)benzoic acid amide]", "values": [{"measurement": "mortality at 500 ppm", "setting": "[3]", "result": "≥ 80", "unit": "%"}, {"measurement": "mortality at 100 ppm", "setting": "[1]; in Brassica oleracea", "result": "≥ 80", "unit": "%"}, {"measurement": "mortality at 100 ppm", "setting": "[2]; in Brassica oleracea", "result": "≥ 80", "unit": "%"}]}
{"smiles": "CC1C(c2ccc(CN(C)C(=O)C3CC3)c(Br)c2)=NOC1(c1cc(Cl)cc(Cl)c1)C(F)(F)F", "note": "(stereo not shown) [2-005, N-(2-bromo-4-(5-(3,5-dichlorophenyl)-4-methyl-5-trifluoromethyl-4,5-dihydroisoxazole-3-yl)phenylmethyl)-N-(methyl)cyclopropanecarboxamide]", "values": [{"measurement": "mortality at 500 ppm", "setting": "[1]; in Brassica oleracea", "result": "≥ 80", "unit": "%"}, {"measurement": "mortality at 500 ppm", "setting": "[2]; in Brassica oleracea", "result": "≥ 80", "unit": "%"}]}
{"smiles": "NC(=O)c1ccc(C2=NOC(c3cc(C(F)(F)F)cc(C(F)(F)F)c3)(C(F)(F)F)C2Br)cc1", "note": "(stereo not shown)", "values": [{"measurement": "melting point", "result": "190 to 193", "unit": "°C"}]}
{"smiles": "Cc1cc(C(/C=C(\\c2cc(Cl)cc(Cl)c2)C(F)(F)F)=NO)ccc1C(=O)NCC(F)(F)F", "note": "[6-001, 4-((2E)-3-(3,5-dichlorophenyl)-4,4,4-trifluoro-1-(hydroxyimino)-2-butenyl)-2-methyl-N-(2,2,2-trifluoroethyl)benzoic acid amide]", "values": [{"measurement": "mortality at 500 ppm", "setting": "[1]; drug solution 500 ppm (mark **), cabbage leaf immersed, 2 instar larvae, after 6 days, read-out: mortality", "result": "≥ 80", "unit": "%"}, {"measurement": "mortality at 500 ppm", "setting": "[7]; drug solution 500 ppm, cucumber leaf immersed, 2 instar larvae, after 6 days, read-out: mortality", "result": "≥ 80", "unit": "%"}]}
{"smiles": "Cc1cc(C(/C=C(/c2cc(Cl)cc(Cl)c2)C(F)(F)F)=NO)ccc1C(=O)NCC(F)(F)F", "note": "[5-001, 4-((2Z)-3-(3,5-dichlorophenyl)-4,4,4-trifluoro-1-(hydroxyimino)-2-butenyl)-2-methyl-N-(2,2,2-trifluoroethyl)benzoic acid amide]", "values": [{"measurement": "mortality at 100 ppm", "setting": "[1]; [9]", "result": "≥ 80", "unit": "%"}, {"measurement": "mortality at 100 ppm", "setting": "[2]; [9]", "result": "≥ 80", "unit": "%"}]}
{"smiles": "Cc1cc(C2=NOC(c3cc(Cl)cc(Cl)c3)(C(F)(F)F)C2Cl)ccc1C(=O)NCC(F)(F)F", "note": "(stereo not shown) [1-002, 4-(4-chloro-5-(3,5-dichlorophenyl)-5-trifluoromethyl-4,5-dihydroisoxazole-3-yl)-2-methyl-N-(2,2,2-trifluoroethyl)benzoic acid amide]", "values": [{"measurement": "mortality at 10 ppm", "setting": "[1]; in Brassica oleracea", "result": "≥ 80", "unit": "%"}, {"measurement": "mortality at 10 ppm", "setting": "[2]; in Brassica oleracea", "result": "≥ 80", "unit": "%"}]}
{"smiles": "Cc1cc(C2=NOC(c3cc(Cl)cc(Cl)c3)(C(F)(F)F)C2C)ccc1C(=O)NCC(F)(F)F", "note": "(stereo not shown) [1-004, 4-(5-(3,5-dichlorophenyl)-4-methyl-5-trifluoromethyl-4,5-dihydroisoxazole-3-yl)-2-methyl-N-(2,2,2-trifluoroethyl)benzoic acid amide]", "values": [{"measurement": "mortality at 100 ppm", "setting": "[8]", "result": "≥ 80", "unit": "%"}, {"measurement": "mortality at 500 ppm", "setting": "[5]", "result": "≥ 80", "unit": "%"}, {"measurement": "mortality at 100 ppm", "setting": "[1]; in Brassica oleracea", "result": "≥ 80", "unit": "%"}, {"measurement": "mortality at 500 ppm", "setting": "[6]", "result": "≥ 80", "unit": "%"}, {"measurement": "mortality at 500 ppm", "setting": "[7]; in Cucumis sativus", "result": "≥ 80", "unit": "%"}, {"measurement": "mortality at 100 ppm", "setting": "[2]; in Brassica oleracea", "result": "≥ 80", "unit": "%"}]}
